From patent publication US5681846A (priority 1995, dated 1997)
“Also recorded” adds a separate entry of the source. Like-named read-outs stand apart in the source and are kept apart here.

Experiments:
[1] = assay type: physicochemical; settings: for Precipitation Time (earliest among triplicate samples): Cremophor EL 8.3%
Source text: Physical stability testing of extended stability formulations has been evaluated for the effects of changing alcohol concentration on precipitation times in infusion solutions.
In the 15 to 20% range, the time to precipitation varied from about 9 to 14 days in most samples. […] Within the 15 to 20% group, however, the time to precipitation was variable and not linearly related to alcohol content.
^a Cremophor ® EL concentration held constant at 8.3%, the same a
^b Earliest precipitation among triplicate samples.

[2] = Visual examination of paclitaxel test solutions (physical compatibility); assay type: physicochemical; set-up: key to Visual observation: --: Light blue hazy solution free of particulate matter; settings: for Visual observation, all samples: days 1 and 3
Procedure: (§1) Aliquots were removed from each bag initially and after 1, 3, 5, and 7 days and stored in 2-ml sterile vials at -70° C. Grossly precipitated solutions were assayed after 31 days of storage. Duplicate HPLC determinations were performed on the aliquots from each test solution.
(§2) Physical compatibility was evaluated by visual examination and turbidimetric quantification. […] The tubes and caps were triple-washed in high-performance liquid chromatography-grade water and rinsed exteriorly with ethanol. To minimize the effects of scratches and imperfections in the glass, a thin layer of silicone oil was applied to the exterior of the culture tubes.
Visual examination of the samples was performed with the unaided eye in normal laboratory fluorescent light. Samples with no obvious visual incompatibility were further examined using a Tyndall beam (high-intensitymonodirectional light source)(Dolan-Jenner, Woburn, Mass.). The test tubes were illuminated from below and viewed at a 90° angle against a dark background to enhance the visibility of small particles.
(§3) Visual inspections and turbidimetric assessments were performed initially and after 1, 3, 5, 7, 14, and 31 days of storage at each temperature protected from light.

[3] = Turbidimetric assessment of paclitaxel test solutions; assay type: physicochemical; settings: during the study
Procedure: as §1, §2
Turbidimetric assessments of the normally hazy paclitaxel solutions were made using a color-correcting turbidimeter (Hatch, Loveland, Colo.). The turbidimeter was calibrated in the manner described previously (Trissel et al., 1992). Triplicate determinations were made for each sample; the turbidimeter was allowed to return to zero between determinations. Incompatibility has been defined as an increase in turbidity of 0.5 nephelometric turbidity unit (NTU) or more (Trissel et al., 1993).
as §3

[4] = Chemical stability of paclitaxel in infusion solutions by HPLC; assay type: physicochemical; settings: 0.1 and 1 mg/mL; D5W and 0.9% NaCl
Procedure: The liquid chromatograph consisted of a multisolvent delivery pump (Waters Chromatography, Milford, Mass.), a programmable multiple-wavelength ultraviolet light detector (Waters), a WISP autosampler,(Waters) and a HPLC analytical column (Vydac, Hesperia, Calif.) (250×4.6 mm, 5 μm particle size). The system was controlled and integrated by a personal computer (NEC, Boxborough, Mass.). The mobile phase consisted of 53% acetonitrile in water. The flow rate was 1.5 ml/min and detection was performed at 254 nm. […] Sample aliquots were filtered through 5 μm filter needle.
Precision expressed as percent relative standard deviation was 0.76%. Calibration curves were constructed from a linear plot of peak area versus concentration (0,025 to 0.15 mg/mL). […] The intra-day and inter-day coefficients of variation were 1.4% and 2.0%, respectively.
Aliquots were removed from each bag initially and after 1, 3, 5, and 7 days and stored in 2-ml sterile vials at -70° C. […] Duplicate HPLC determinations were performed on the aliquots from each test solution.

tubulin = settings: cited from earlier work
cell replication = settings: in vitro; cited from earlier work
lymphoma, breast cancer = settings: cited from earlier work
[5] = cited from earlier work

CC(=O)O[C@H]1C(=O)[C@@]2(C)[C@H]([C@H](OC(=O)c3ccccc3)[C@]3(O)C[C@H](OC(=O)[C@H](O)[C@@H](NC(=O)c4ccccc4)c4ccccc4)C(C)=C1C3(C)C)[C@]1(OC(C)=O)CO[C@@H]1C[C@@H]2O [paclitaxel]
Precipitation Time (earliest among triplicate samples) ([1]; 1 mg/mL in D5W, alcohol 15%): 14 days | Precipitation Time (earliest among triplicate samples) ([1]; 1 mg/mL in D5W, alcohol 16%): 12 days | Precipitation Time (earliest among triplicate samples) ([1]; 1 mg/mL in D5W, alcohol 17%): 10 days | Precipitation Time (earliest among triplicate samples) ([1]; 1 mg/mL in D5W, alcohol 18%): 12 days | Precipitation Time (earliest among triplicate samples) ([1]; 1 mg/mL in D5W, alcohol 19%): 9 days | Precipitation Time (earliest among triplicate samples) ([1]; 1 mg/mL in D5W, alcohol 20%): 9 days | gross precipitation ([1]; 1 mg/mL in D5W, alcohol 25%): 21 days | Precipitation Time (earliest among triplicate samples) ([1]; 1 mg/mL in D5W, alcohol 25%): 14 days | earliest microprecipitation ([1]; 1 mg/mL in D5W, alcohol 25%, one sample): 14 days | Precipitation Time (earliest among triplicate samples) ([1]; 1 mg/mL in D5W, alcohol 30%): > 60 days | storage time without precipitation or microcrystals ([1]; 1 mg/mL in D5W, alcohol 30 and 50%, any sample): > 60 days | Precipitation Time (earliest among triplicate samples) ([1]; 1 mg/mL in D5W, alcohol 50%): > 60 days | precipitation among triplicate samples ([1]; alcohol 19% and 20% (footnote c)): One sample precipitated at 9 days, 2 samples at 14 days or more. | precipitation among triplicate samples ([1]; alcohol 25% (footnote d)): One sample did not precipitated after 60 days. | precipitation among triplicate samples ([1]; alcohol 30% and 50% (footnote e)): All three samples were still in solution after 60 days. | precipitation observed visually / by Tyndall beam ([2]; 0.1 and 1 mg/mL, D5W and 0.9% NaCl): all samples were initially free of particulate matter but had paclitaxel's normal haze; also recorded: Large amounts of white flocculent precipitate appeared after 31 days of storage in many of the samples and after 14 days in a few samples; also recorded: Two samples had small amounts of crystalline precipitate within five days of storage; also recorded: Most samples had crystalline precipitation within a week | chemical stability and physical compatibility time ([2]; 0.1 and 1 mg/mL, D5W and 0.9% NaCl, 4, 22, 32 °C): All samples remained compatible in both infusion solutions for at least three days; also recorded: chemically stable and physically compatible for three days | Visual observation ([2]; 0.9% NaCl, 0.1 mg/mL, 4 °C, day 0): -- | Visual observation ([2]; 0.9% NaCl, 0.1 mg/mL, 4 °C, day 7): Tiny crystals | Visual observation ([2]; 0.9% NaCl, 0.1 mg/mL, 22 °C, day 0): -- | Visual observation ([2]; 0.9% NaCl, 0.1 mg/mL, 22 °C, day 5): -- | Visual observation ([2]; 0.9% NaCl, 0.1 mg/mL, 22 °C, day 7): Tiny crystals | Visual observation ([2]; 0.9% NaCl, 0.1 mg/mL, 32 °C, day 0): -- | Visual observation ([2]; 0.9% NaCl, 0.1 mg/mL, 32 °C, day 5): -- | Visual observation ([2]; 0.9% NaCl, 0.1 mg/mL, 32 °C, day 7): Tiny crystals | Visual observation ([2]; 0.9% NaCl, 1 mg/mL, 4 °C, day 0): -- | Visual observation ([2]; 0.9% NaCl, 1 mg/mL, 4 °C, day 5): -- | Visual observation ([2]; 0.9% NaCl, 1 mg/mL, 4 °C, day 7): Tiny crystals | Visual observation ([2]; 0.9% NaCl, 1 mg/mL, 22 °C, day 0): -- | Visual observation ([2]; 0.9% NaCl, 1 mg/mL, 22 °C, day 5): -- | Visual observation ([2]; 0.9% NaCl, 1 mg/mL, 22 °C, day 7): Tiny crystals | Visual observation ([2]; 0.9% NaCl, 1 mg/mL, 32 °C, day 0): -- | Visual observation ([2]; 0.9% NaCl, 1 mg/mL, 32 °C, day 5): -- | Visual observation ([2]; 0.9% NaCl, 1 mg/mL, 32 °C, day 7): Tiny crystals | Visual observation ([2]; 0.9% NaCl, 1 mg/mL, 32 °C, day 14): Tiny crystals | Visual observation, all samples ([2]; 0.9% NaCl): particulatefree | Visual observation ([2]; 5% dextrose, 0.1 mg/mL, 4 °C, day 0): -- | Visual observation ([2]; 5% dextrose, 0.1 mg/mL, 4 °C, day 5): -- | Visual observation ([2]; 5% dextrose, 0.1 mg/mL, 4 °C, day 7): -- | Visual observation ([2]; 5% dextrose, 0.1 mg/mL, 4 °C, day 14): -- | Visual observation ([2]; 5% dextrose, 0.1 mg/mL, 22 °C, day 0): -- | Visual observation ([2]; 5% dextrose, 0.1 mg/mL, 22 °C, day 5): -- | Visual observation ([2]; 5% dextrose, 0.1 mg/mL, 32 °C, day 0): -- | Visual observation ([2]; 5% dextrose, 0.1 mg/mL, 32 °C, day 5): -- | Visual observation ([2]; 5% dextrose, 1 mg/mL, 4 °C, day 0): -- | Visual observation ([2]; 5% dextrose, 1 mg/mL, 22 °C, day 0): -- | Visual observation ([2]; 5% dextrose, 1 mg/mL, 22 °C, day 5): -- | Visual observation ([2]; 5% dextrose, 1 mg/mL, 32 °C, day 0): -- | Visual observation ([2]; 5% dextrose, 1 mg/mL, 32 °C, day 5): -- | Visual observation, all samples ([2]; 5% dextrose): particulatefree | change in turbidity [3]: did not result in any change during the study except for samples with noticeable precipitation | decomposition products on HPLC chromatograms [4]: No decomposition products appeared on the HPLC chromatograms | tubulin polymerization (tubulin): markedly enhances all aspects of tubulin polymerization; initiation and elongation are more rapid | inhibition of cell replication (cell replication): potent inhibitor of cell replication in vitro | activity in clinical trials (lymphoma, breast cancer): has shown activity against lymphoma, breast cancer, and possibly other tumors | appearance after dilution in infusion fluids ([5]; clinical formulation diluted in intravenous infusion fluids): slight haze and, occasionally, a few minute particles | physical stability in aqueous solutions ([5]; clinical formulation): physically unstable, and in aqueous solutions exhibits the formation of paclitaxel precipitate
